# T1: phosphor peptide substrate RRApTVA
# T1 chain: RRATVA
# B1: GST-PP2CABA (protein)
# chain: LSQGAEEEEDDGEVRLMGLAGEAAGSPGSGGGFSANGKFSYGYASSPGKRSSMEDFYDTRIDGVDGETVGLFGVFDGHGGARAAEFVKQNLFTNLIKHPKLFSDTKSAIAETYTSTDSELLKAETSHNRDAGSTASTAILVGDRLLVANVGDSRAVICRGGDAIAVSRDHKPDQSDERQRIEDAGGFVMWAGTWRVGGVLAVSRAFGDKLLKQYVVADPEIKEEVVDSSLEFLILASDGLWDVVTNEEAVAMVKPILDSEQAAKKLLQEASQRGSADNITCLVVRFLEQENHLPERPTNDQAS
# B2: GST-PP2CABA(25-327) (protein)
# chain: LSQGAEEEEDDGEVRLMGLAGEAAGSPGSGGGFSANGKFSYGYASSPGKRSSMEDFYDTRIDGVDGETVGLFGVFDGHGGARAAEFVKQNLFTNLIKHPKLFSDTKSAIAETYTSTDSELLKAETSHNRDAGSTASTAILVGDRLLVANVGDSRAVICRGGDAIAVSRDHKPDQSDERQRIEDAGGFVMWAGTWRVGGVLAVSRAFGDKLLKQYVVADPEIKEEVVDSSLEFLILASDGLWDVVTNEEAVAMVKPILDSEQAAKKLLQEASQRGSADNITCLVVRFLEQENHLPERPTNDQAS
# B3: GST-PP2CABA: GST-PP2CABA fusion protein expressed and purified from E. coli (protein)
# chain: LSQGAEEEEDDGEVRLMGLAGEAAGSPGSGGGFSANGKFSYGYASSPGKRSSMEDFYDTRIDGVDGETVGLFGVFDGHGGARAAEFVKQNLFTNLIKHPKLFSDTKSAIAETYTSTDSELLKAETSHNRDAGSTASTAILVGDRLLVANVGDSRAVICRGGDAIAVSRDHKPDQSDERQRIEDAGGFVMWAGTWRVGGVLAVSRAFGDKLLKQYVVADPEIKEEVVDSSLEFLILASDGLWDVVTNEEAVAMVKPILDSEQAAKKLLQEASQRGSADNITCLVVRFLEQENHLPERPTNDQAS
# modifications: left off: a dimerising Fc or GST
# notes: GST-PP2CABA fusion protein expressed and purified from E. coli
# B4: GST-PPCABA(41-327) (protein)
# chain: MGLAGEAAGSPGSGGGFSANGKFSYGYASSPGKRSSMEDFYDTRIDGVDGETVGLFGVFDGHGGARAAEFVKQNLFTNLIKHPKLFSDTKSAIAETYTSTDSELLKAETSHNRDAGSTASTAILVGDRLLVANVGDSRAVICRGGDAIAVSRDHKPDQSDERQRIEDAGGFVMWAGTWRVGGVLAVSRAFGDKLLKQYVVADPEIKEEVVDSSLEFLILASDGLWDVVTNEEAVAMVKPILDSEQAAKKLLQEASQRGSADNITCLVVRFLEQENHLPERPTNDQAS
# What was measured:
# PP2CABA promoter = experiment: GUS staining of transgenic rice carrying PP2CABA:GUS treated with ABA; format: in vivo, Oryza sativa; details: 10 μM ABA for 1 day; basal meristem region in root tips, LR primordia and young leaves
# Description: (§1) FIG. 3A to FIG. 3D include diagrams showing plants have higher PP2CABA expression under induction by ABA and abiotic stress and are expressed in meristematic tissues. […] Ten-day-old rice seedlings were treated with 5 μM ABA, 200 mM NaCl, dehydration on tissue papers, or 4° C. for 3 hours. Total RNAs were purified from shoots and roots, and subjected to quantitative RT-PCR analysis using gene specific primers. […] Ten-day-old WT rice seedlings were treated with various concentrations of ABA for 24 hours. Total RNAs were purified from roots, and subjected to quantitative RT-PCR analysis using PP2CABA-specific primers. […] Recombinant GST-PP2CABA, GST-PP2CABA (D100A), GST-ABI2, and GST proteins were expressed in E. coli, purified and reacted with a phosphor peptide substrate, RRApTVA, and phosphatase activities were determined by measuring released free phosphate. […] Ten-day-old seedlings of transgenic rice carrying PP2CABA:GUS were treated with (lower panel) or without (upper panel) 10 μM ABA for 1 day and then stained for GUS activity. Arrow indicates young leaves.
# Tissues were placed in GUS assay buffer containing (0.1 M NaPO4 buffer pH 7.0, 10 mM EDTA, 0.1% Triton X-100, 0.5 mM potassium ferricyanide pH 7.0, and 1.0 mM X-glucuronide) and incubated overnight at 37° C. Vacuum aspiration was applied during initial 30 minutes. […]
# [1] = system: PP2CABA expression in roots; experiment: Quantitative RT-PCR of PP2CABA expression in roots of ABA-treated rice seedlings; format: in vivo, Oryza sativa; details: various concentrations of ABA, 24 hours
# Description: FIG. 3A to FIG. 3D include diagrams showing plants have higher PP2CABA expression under induction by ABA and abiotic stress and are expressed in meristematic tissues. […] Ten-day-old rice seedlings were treated with 5 μM ABA, 200 mM NaCl, dehydration on tissue papers, or 4° C. for 3 hours. Total RNAs were purified from shoots and roots, and subjected to quantitative RT-PCR analysis using gene specific primers. […] Ten-day-old WT rice seedlings were treated with various concentrations of ABA for 24 hours. Total RNAs were purified from roots, and subjected to quantitative RT-PCR analysis using PP2CABA-specific primers. […] Recombinant GST-PP2CABA, GST-PP2CABA (D100A), GST-ABI2, and GST proteins were expressed in E. coli, purified and reacted with a phosphor peptide substrate, RRApTVA, and phosphatase activities were determined by measuring released free phosphate. […]
# Total RNA was purified from rice tissues using Trizol reagent (Invitrogen) and treated with RNase-free DNase I (Promega). […] For quantitative RT-PCR analyses, 5-μl of cDNA was mixed with primers and the 2× Power SYBR Green PCR Master Mix reagent (Roche) and applied to an ABI 7500 Real-Time PCR system (Applied Biosystems). The quantitative variation between different samples was evaluated by the Δ-Δ cycle threshold method, and the amplification of ubiquitin 5 was used as an internal control to normalize all data.
# [2] = system: genes essential for lignin and suberin biosynthesis; experiment: Quantitative RT-PCR of lignin and suberin biosynthesis genes in roots of ABA-treated WT rice; format: in vivo, Oryza sativa; details: ABA 24 hours, except PAL and CAD
# Excerpt: FIG. 9A to FIG. 9B include diagrams showing that ABA and PP2CABA up-regulating the expression of genes essential for lignin and suberin biosynthesis. […] Total RNA was purified from roots and subjected to quantitative RT-PCR analysis using gene specific primers.
# Total RNA was purified from rice tissues using Trizol reagent (Invitrogen) and treated with RNase-free DNase I (Promega). The DNase-digested RNA sample was used for reverse transcription by Superscript III reverse transcriptase (Invitrogen). Samples, which served as cDNA stocks for PCR analysis, were stored at −70° C. RT-PCR analysis was performed in a 50-μl solution containing 5-μl cDNA stock using Taq DNA polymerase (Viogene). RT-PCR products were fractionated in a 1.5% agarose gel and visualized by ethidium bromide staining. All RT-PCR analyses were performed from at least two batches of RNA samples with similar results. For quantitative RT-PCR analyses, 5-μl of cDNA was mixed with primers and the 2× Power SYBR Green PCR Master Mix reagent (Roche) and applied to an ABI 7500 Real-Time PCR system (Applied Biosystems). The quantitative variation between different samples was evaluated by the Δ-Δ cycle threshold method, and the amplification of ubiquitin 5 was used as an internal control to normalize all data.
# rice roots = experiment: Histochemical staining of root sections for lignin (acriflavine) and suberin (fluorol yellow 088); format: in vivo, Oryza sativa; details: 1 μM ABA, 3 days
# Description: FIG. 10A to FIG. 10B include photos showing ABA and PP2CABA enhance the accumulation of lignin and suberin in cell walls of root peripheral layers and increase the root diameter. […] 1 μM ABA was added and seedlings were cultured for another 3 days. […] Roots at 1 cm above the apex were cross-sectioned and stained with acriflavine for lignin and fluorol yellow 088 for suberin. F, fluorescence image; T, transmission image; EP, epidermis; EX, exodermis; SC, sclerenchyma; CO, cortex. Scale bars=10 μm.
# Methonal fixed roots were embedded in 5% agar and cut into 100 μm cross sections using a vibratome (DOSAKA DTK-1000). To check for autofluorescence, sections were viewed under a Zeiss Axiolmager Z1 fluorescence microscope with UV illumination using excitation filter G 365, chromatic beam splitter FT 395, and barrier filter LP 420. To check for lignin distribution, sections were stained with Acriflavine as described (Rocha et al., Front Plant Sci, 5:102 (2014)). Sections were imaged with a Zeiss LSM 510 META confocal microscope using a 488 nm laser line for excitation and a 505 to 550 nm band pass filter for emission. To check for suberin lamellae, sections were stained with Fluorol Yellow 088 as described (Brundrett et al., Biotech Histochem, 66:111 (1991); Landgraf et al., Plant Cell, 26:3403 (2014)). […]
# rice seedlings [3] = experiment: Lateral root growth and root diameter of rice seedlings treated with ABA; format: in vivo, Oryza sativa; details: 1 μM ABA
# Description: FIG. 5A to FIG. 5B include photos showing plants have lower LR to PR ratio under induction of ABA and expression of PP2CABA. […] Ten-day-old seedlings of segregated wild type (WT) or pp2caba homozygous mutant were treated with (+) or without (−) 1 μM ABA for 3 days. Upper panel: morphology of roots. Lower panel: elongation of LR in boxed area (1 cm above the root tip) of roots in upper panel. LRP (marked by arrowheads) were initiated but not elongated in WT in the presence of ABA. […] Upper panel: morphology of roots. Lower panel: elongation of LR in boxed area (2 cm above the root tip) of roots in upper panel. LRP (marked by arrowheads) were initiated but not elongated in PP2CABA-overexpressing transgenic rice. S: seminal roots. C: crown roots.
# The japonica rice (Oryza sativa cv Tainung 67) was used in this study. Plasmids were introduced into Agrobacterium tumefaciens strain EHA105, and rice transformation was performed as described (Chen et al., J Biol Chem, 277:13641 (2002)). The PP2CABA mutant seeds were obtained from the Taiwan Rice Insertional Mutant (TRIM) library (Hsing et al., Plant Molecular Biology, 63:351 (2007)). For hydroponic culture of rice seedlings, seeds were sterilized with 3% NaOCl for 30 minutes, washed extensively with distilled water, and germinated in petri dishes with wetted filter papers at 37° C. in the dark. After 48 h of incubation, germinated seeds were cultivated in Yoshida solution (Yoshida et al., International Rice Research Institute, 3 (1976)). The culture solution was replaced with fresh solution every 2 days. For observation of root growth in glass tube with phytagel, sterilized rice seeds were germinated on the surface of plate with Yoshida solution with 0.3% phytagel without sugar in the dark at 28° C. for about 48 hours. The germinated seedlings were then transplanted to glass tubes, which were 22 cm in height and 4.5 cm in diameter, and each filled with 150 ml Yoshida solution with 0.3% phytagel without sugar. 6 cm plastic dish was used to cover the glass tube and sealed by micropore tape to allow light penetration and gas exchange and prevent the medium from becoming contaminated by external microbes. Seedlings were grown under a 14-h-light/10-h-dark cycle in a 28° C. chamber.
# rice seedlings [4] = details: Chen et al. 2015; cited from earlier work
# [5] = target: T1, phosphor peptide substrate RRApTVA
# [6] = system: phosphor peptide substrate, RRApTVA; experiment: Phosphatase activity assay of GST fusion proteins (released free phosphate); format: biochemical; details: recombinant GST fusion protein from E. coli, synthetic phosphopeptide
# Description: as §1
# FIG. 6A to FIG. 6E include diagrams showing PP2CABA having two forms which are translated from the first and the second ATG codons. […] The 2nd ATG encodes the Met at amino acid residue 41. Amino acids 1-24 are putative signal peptide (SP). […] Protein loading is shown by the Ponceau S staining (lower panel). […]
molecule,measurement,setting,value
"CC1=CC(=O)CC(C)(C)[C@@]1(O)/C=C/C(C)=C\C(=O)O [ABA, abscisic acid]",PP2CABA promoter activity (GUS),PP2CABA promoter,induced
same,dose dependence of PP2CABA expression in roots,[1],increased with ABA concentrations in a dose-dependent manner
same,expression of lignin and suberin biosynthesis genes,[2],induced
same,accumulation of lignin and suberin in endodermal and exodermal cell layers in roots,rice roots,enhanced the accumulation of lignin and suberin
same,"LR growth, WT compared with pp2caba",rice seedlings [3],more severely inhibited in WT than in pp2caba mutant
same,LR growth in WT,"rice seedlings [3]; 3 days, WT seedlings, maturation zones of roots",completely inhibited
same,LR growth in pp2caba,"rice seedlings [3]; 3 days, pp2caba homozygous mutant, maturation zones of roots",stunted
same,root diameter,rice seedlings [3]; both WT and pp2caba,enlarged
same,ABA concentrations that enhance LR growth,rice seedlings [4],≤ 0.1 µM
same,ABA concentrations that inhibit LR growth,rice seedlings [4],≥ 0.2 µM
B1,phosphatase activity (released free phosphate),[5],GST-PP2CABA fusion protein expressed and purified from E. coli exhibited phosphatase activity
B2,phosphatase activity (released free phosphate),[5],both of L form and S form of PP2CABA have phosphatase activities
B3,phosphatase activity,[6],exhibited phosphatase activity
B4,phosphatase activity,[6],have phosphatase activities
same,phosphatase activity (released free phosphate),[5],both of L form and S form of PP2CABA have phosphatase activities
